The target in one test is T1, NK-3 receptor (Cavia porcellus, UniProt P30098).
T1 construct: freshly collected guinea pig cerebral cortex; from tissue; host or cells: guinea pig cerebral cortex membranes
T1 sequence (P30098 1-440): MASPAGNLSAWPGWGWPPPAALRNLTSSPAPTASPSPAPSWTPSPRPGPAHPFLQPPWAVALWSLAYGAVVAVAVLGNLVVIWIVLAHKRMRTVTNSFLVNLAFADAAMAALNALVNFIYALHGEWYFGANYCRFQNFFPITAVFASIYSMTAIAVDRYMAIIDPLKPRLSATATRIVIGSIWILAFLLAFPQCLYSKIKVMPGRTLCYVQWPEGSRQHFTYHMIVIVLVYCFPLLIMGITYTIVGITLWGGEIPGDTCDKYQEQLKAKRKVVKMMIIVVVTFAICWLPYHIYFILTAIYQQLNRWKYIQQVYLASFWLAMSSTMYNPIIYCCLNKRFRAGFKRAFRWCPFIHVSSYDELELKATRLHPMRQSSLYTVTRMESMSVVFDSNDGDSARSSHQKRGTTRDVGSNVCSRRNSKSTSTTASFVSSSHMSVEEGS
The experiment in a line: Antagonism of iodinated tachykinin binding to NK-3 receptor (125I-Bolton Hunter labeled Lys-4 eledoisin, guinea pig cerebral cortex membranes). On the procedure:
(§1) The NK1 receptor affinity of proposed tachykinin antagonists was devaluated in guinea pig lungs (Keystone Biologicals, Cleveland, OH), affinity for the NK2 receptor evaluated in HSKR-1 cells (which are mouse 3T3 fibroblasts expressing the human jejunal NK2 receptor) and NK-3 receptor affinity was evaluated in freshly collected guinea pig cerebral cortex. Tissues or cells were homogenized with a Polytron in 15 volumes of 50 mM Tris-HCl buffer (pH 7.4, 4°C) and centrifuged. The pellet was resuspended in Tris-HCl buffer and was centrifuged; the pellet was washed twice by resuspension. The final pellet was resuspended at a concentration of 40 mg/ml for tissues (guinea pig lung and cerebral cortex) and 20 mg/ml for cells in incubation buffer and remained at room temperature for at least 15 min prior to use. Receptor binding was initiated by addition of 250 µl membrane preparation in duplicate to 0.1 nM of the following radioligands: ^125I-Bolton Hunter Lys-3 labeled substance P; ^125iodohistidyl-1-neurokinin A; and ^125I-Bolton Hunter labeled Lys-4 eledoisin in a final volume of 500 µl of buffer containing 50 mM Tris-HCl (pH 7.4 at room temperature), 0.1% bovine serum albumin, 2 mM MnCl2, 40 µg/ml bacitracin, 4 µg/ml leupeptin and chymostatin, 1 µM thiorphan and various doses of the putative tachykinin antagonists. Incubations were performed at room temperature for 90 min (NK1 receptor assays) or 2 hr (NK2 and NK3 receptor assays); binding was terminated by addition of 50 mM Tris-HCl buffer (pH 7.4, 4°C) and filtration under vacuum through GF/B filters presoaked with 0.1% polyethyleneimine (NK1 receptor assays) or 0.5% bovine serum albumin (NK2 and NK3 receptor assays). Filter bound radioactivity was quantitated in a gamma counter. Nonspecific binding was defined as binding in the presence of 1 µM substance P, neurokinin A, or eledoisin. Specific binding was calculated by subtracting nonspecific binding from total binding. Competition of iodinated SP, NKA, or eledoisin binding by test compounds or standards was expressed as a percentage of this maximum competition. IC50 values (concentration required to inhibit 50% of receptor binding) were generated for each of the test compounds by nonlinear regression using an iterative curve fitting program (GraphPAD Inplot, San Diego, CA).

The target of test [1] is T2, human jejunal NK2 receptor (Homo sapiens, UniProt P21452).
T2 construct: expressed in transfected cells; host or cells: HSKR-1 cells (mouse 3T3 fibroblasts)
T2 sequence (P21452 1-398): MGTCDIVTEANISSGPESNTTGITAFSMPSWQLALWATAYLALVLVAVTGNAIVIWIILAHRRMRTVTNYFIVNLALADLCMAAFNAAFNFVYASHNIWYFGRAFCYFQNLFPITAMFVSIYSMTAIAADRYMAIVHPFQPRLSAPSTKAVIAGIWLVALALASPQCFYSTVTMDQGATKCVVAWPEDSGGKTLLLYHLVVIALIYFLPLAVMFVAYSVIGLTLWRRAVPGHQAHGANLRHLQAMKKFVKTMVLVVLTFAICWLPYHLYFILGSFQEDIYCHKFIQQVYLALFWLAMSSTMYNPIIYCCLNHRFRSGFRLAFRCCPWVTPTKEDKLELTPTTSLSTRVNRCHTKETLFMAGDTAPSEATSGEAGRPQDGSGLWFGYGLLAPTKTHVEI
The experiment in a line: Antagonism of iodinated tachykinin binding to NK2 receptor (125iodohistidyl-1-neurokinin A, HSKR-1 cell membranes). The conditions noted are these: HSKR-1 cells (mouse 3T3 fibroblasts expressing human jejunal NK2 receptor); mean of several experiments; read-out: NK-2 IC50. As to the method: as §1

Another test concerns the target T3, NK1 receptor (Cavia porcellus, UniProt P30547).
T3 construct: Tissues or cells were homogenized with a Polytron in 15 volumes of 50 mM Tris-HCl buffer; tissue Keystone Biologicals, Cleveland, OH; host or cells: guinea pig lung membranes
Description: Antagonism of iodinated tachykinin binding to NK1 receptor (125I-Bolton Hunter Lys-3 labeled substance P, guinea pig lung membranes). The conditions noted are these: guinea pig lungs; mean of several experiments; read-out: NK-1 IC50. As to the method:
as §1

The mark [2] stands for this setting: guinea pig cerebral cortex, mean of several experiments, read-out: NK-3 IC50.

This passage reports IC50 results from EP0696280B1, “SUBSTITUTED PYRROLIDIN-3-YL-ALKYL-PIPERIDINES USEFUL AS TACHYKININ ANTAGONISTS” (MERRELL PHARMACEUTICALS INC., priority 1993, dated 1994).

Read-outs that look alike come from different tables or passages of the source.

T3 sequence (P30547 whole entry): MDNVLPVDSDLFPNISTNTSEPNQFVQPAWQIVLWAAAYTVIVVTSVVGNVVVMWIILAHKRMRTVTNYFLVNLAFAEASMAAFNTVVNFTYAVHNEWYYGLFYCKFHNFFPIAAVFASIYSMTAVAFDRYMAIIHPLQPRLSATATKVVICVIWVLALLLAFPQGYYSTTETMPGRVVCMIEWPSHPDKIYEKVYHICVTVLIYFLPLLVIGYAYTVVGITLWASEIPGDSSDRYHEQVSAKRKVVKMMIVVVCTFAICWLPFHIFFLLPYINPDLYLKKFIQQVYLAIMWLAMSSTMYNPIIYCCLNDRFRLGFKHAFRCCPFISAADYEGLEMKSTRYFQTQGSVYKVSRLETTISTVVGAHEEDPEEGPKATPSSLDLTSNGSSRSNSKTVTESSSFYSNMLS

What is called IC50 is the concentration that gives 50% inhibition. As to `NC(=O)C1(c2ccccc2)CCN(CCC2(c3ccc(Cl)c(Cl)c3)CCN(C(=O)c3ccccc3)C2)CC1` (stereo not shown) [Example 1, 1-[2-[3-(3,4-dichloro-phenyl)-1-benzoyl-pyrrolidin-3-yl]-ethyl]-4-phenyl-piperidine-4-carboxylic acid amide], the IC50 is 162 nM at NK-3 receptor and 7 nM in test [1].
Regarding `COc1ccc(C(=O)N2CCC(CCN3CCC(C(N)=O)(c4ccccc4)CC3)(c3ccc(Cl)c(Cl)c3)C2)c(OC)c1` (stereo not shown) [Example 2, 1-[2-[3-(3,4-dichloro-phenyl)-1-(2,4-dimethoxy-benzoyl)-pyrrolidin-3-yl]-ethyl]-4-phenyl-piperidine-4-carboxylic acid amide], the results for the half-maximal inhibitory concentration (IC50) (on NK-3 receptor; in test [1]; at NK1 receptor) were 65 nM, 34 nM and 131 nM, respectively.
For `COc1ccccc1CC(=O)N1CCC(CCN2CCC(C(N)=O)(c3ccccc3)CC2)(c2ccc(Cl)c(Cl)c2)C1` (stereo not shown) [Example 4, 1-(2-[3-(3,4-dichloro-phenyl)-1-[2-(2-methoxy-phenyl)-acetyl]-pyrrolidin-3-yl]-ethyl)-4-phenyl-piperidine-4-carboxylic acid amide], the IC50 was 41 nM at NK-3 receptor and 74 nM in test [1].
For `COC(=O)[C@@H](NC(=O)C1(c2ccccc2)CCN(CCC2(c3ccc(Cl)c(Cl)c3)CCN(C(=O)c3ccccc3)C2)CC1)[C@@H](C)O` (stereo partly shown) [Example 7, 2-[(1-(2-[1-benzoyl-3-(3,4-dichloro-phenyl)-pyrrolidin-3-yl]-ethyl)-4-phenyl-piperidine-4-carboxyl)-amino]-3-hydroxy butyric acid methyl ester], the IC50 worked out at 202 nM at NK-3 receptor (setting [2]), 10 nM in test [1] and 240 nM at NK1 receptor.
Take `COc1cccc(OC)c1C(=O)N1CCC(CCN2CCC3(CC2)C(=O)NCN3c2ccccc2)(c2ccc(Cl)c(Cl)c2)C1` (stereo not shown) [Example 9, 8-[2-[3-(3,4-dichloro-phenyl)-1-(2,6-dimethoxy-benzoyl)-pyrrolidin-3-yl]-ethyl]-1-phenyl-1,3,8-triaza-spiro[4.5]decane-4-one]: the IC50 at NK-3 receptor (setting [2]) was 183 nM; in test [1], 118 nM; at NK1 receptor, 49 nM.
Consider `O=C(c1ccccc1)N1CCC(CCN2CCC3(CC2)C(=O)NCN3c2ccccc2)(c2ccc(Cl)c(Cl)c2)C1` (stereo not shown) [Example 10, 8-[2-[3-(3,4-dichloro-phenyl)-1-benzoyl-pyrrolidin-3-yl]-ethyl]-1-phenyl-1,3,8-triaza-spiro[4.5]-decane-4-one], for which the IC50 at NK-3 receptor (setting [2]) was found to be 1190 nM; in test [1], 11 nM; on NK1 receptor, 255 nM.
Turning to `NC(=O)C1(c2ccccc2)CCN(CCC2(c3ccc(Cl)c(Cl)c3)CC(=O)N(Cc3ccccc3)C2)CC1` (stereo not shown) [Example 11, 1-[2-[1-benzyl-3-(3,4-dichloro-phenyl)-5-oxo-pyrrolidin-3-yl]-ethyl]-4-phenyl-piperidine-4-carboxylic acid amide], the half-maximal inhibitory concentration (IC50) on NK-3 receptor (setting [2]) came out at 203 nM; in test [1], 127 nM; at NK1 receptor it was 196 nM.
